Data: US20170020909A1, “METHODS OF TREATING GLAUCOMA USING AMP-ACTIVATED PROTEIN KINASE (AMPK) ACTIVATORS” (Massachusetts Eye and Ear Infirmary, priority 2014, published 2017)

Columns and labels:
[1] = system: perfused ex vivo human anterior segments; test: IOP in constant-flow-perfused ex vivo human anterior segments; settings: 2.5 μL of 200 mM AICAR in 1 mL of ex vivo media, by day 7, mean±SEM, n=3
Text: The effects of AICAR on IOP in perfused constant flow ex vivo human anterior segments was examined using well-established and validated methods (see, e.g., Oh et al., Invest. Ophthalmol. Vis. Sci. 2013; 54:3309-19; Ethier et al., Invest. Ophthalmol. Vis. Sci. 2004; 45:1863-70). Briefly, all donor pairs of eyes were obtained from National Disease Research Interchange (NDRI, Philadelphia, Pa.) according to the provisions of the Declaration of Helsinki for research involving human tissue. Eyes were obtained within 24 hours after death. No donors were known to have a history of glaucoma or other ocular disorder. Human perfused anterior segment cultures were prepared by scoring the surface of the eye around ora serrata with a surgical blade, and the full-thickness incision was completed around the eye with scissors. The vitreous, lens, and iris were removed. […] IOP was monitored with a pressure transducer (Argon Medical Devices, Athens, Tex.) and were recorded with an automated computerized system (National Instruments, Austin, Tex.) every second and averaged each hour. […] Effects of AICAR treatment on IOP are expressed as the percentage change in IOP (compared to baseline). Values are expressed as mean±SEM, and paired two-tailed student t-tests are applied to determine significance of difference in IOP between control and experimental groups at selected time intervals. […]

AMPKα = test: Time course immunoblot of p-AMPKα (Thr172)/total AMPKα in primary human TM cell lysates; type: cell-based; settings: 0.5 mM AICAR, human TM cells
Description: Primary human trabecular meshwork (TM) cells were isolated, in accordance with the Declaration of Helsinki, and maintained in culture as described previously.^63 Independent primary human TM cell lines were generated from donors ranging in age from 35 to 72 years and no known history of ocular disease. Cell cultures were maintained, unless otherwise stated, in Dulbecco's modified eagle medium (Life Technologies, Grand Island, N.Y.) containing 20% fetal bovine serum, 1% L-glutamine (2 mM), and gentamicin (0.1 mg/ml) at 37° C. in a 10% CO2 atmosphere. Only TM cells from third through fifth passage were used. All experiments were performed using at least three different primary human TM cell lines.
At the conclusion of each experiment for matricellular and ECM protein detection, conditioned media (CM) from TM cell cultures was harvested and centrifuged at 5000 rpm for 10 minutes at 4° C. The supernatant was then concentrated (Amicon Ultra-4 Filter Unit, 10 kDa; Millipore, Milford, Mass.), and protein content quantified using the DC Protein Assay kit adhering to manufacturer's protocols (Bio-Rad, Hercules, Calif.). For AMPK protein detection, cells were lysed for 3 minutes on ice with cold 1×RIPA buffer containing 0.5% Aprotinin, 0.1% EDTA, 1% EGTA, 0.5% PMSF, and 0.01% Leupeptin. Samples were then centrifuged at 14,000 rpm for 15 minutes at 4° C. and protein content quantified. In all experiments, equal amounts of protein were treated with 6× reducing buffer and boiled for 5 minutes. Samples were then electrophoresed in 10% SDS-polyacrylamide gels, alongside a pre-stained protein marker (Cell Signaling Technology Inc., Danvers, Ma). For conditioned media loading control, the resultant gels were stained with 0.1% Coomassie Brilliant Blue G-250 (Bio-Rad, Hercules Calif.) for 3 hours and were destained with fixing/destaining solution until clear bands were visible and contrasted well with the true blue background. Otherwise, proteins were transferred to nitrocellulose membranes (0.45-μm pore size; Invitrogen). […] The membranes were then washed three times with 1×TBS-T, scanned, and integrated band intensities were calculated using an infrared imaging system (Odyssey; Li-Cor, Lincoln, Nebr.). […]

## NC(=O)c1ncn([C@@H]2O[C@H](CO)[C@@H](O)[C@H]2O)c1N [AICAR, 5-Aminoimidazole-4-carboxamide riboside]
[1]
  mean decrease in IOP compared with paired opposite eye controls: 18.54±1.78%
AMPKα; at 2 hours
  peak increase of phospho-total AMPK ratio: greater than 2 fold
AMPKα; within 1 hour
  increase of phospho-total AMPK ratio, normalized to the zero time point: 77%
